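Where inhibition never reached the appropriate level, the endpoint shown equals the highest concentration tested. Otherwise, values were interpolated linearly from a five-concentration, 48-hour dose response in 96-well plates. GI50: concentration for 50% inhibition of growth.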 The source made the active and inactive calls. Cut-off read from the data, not from the text of the source: active = GI50 up to about 1.1 µM and inactive = higher.
Assays:
Test in all cases: NCI tumour cell line growth inhibition, 48 h
786-0 = test system: 786-0
A498 = test system: A498
A549 = test system: A549
ACHN = test system: ACHN
BT-549 = test system: BT-549
CAKI-1 = test system: CAKI-1
CCRF-CEM = test system: CCRF-CEM
COLO 205 = test system: COLO 205
DLD-1 = test system: DLD-1
DMS-114 = test system: DMS-114
DU-145 = test system: DU-145
EKVX = test system: EKVX
HCC 2998 = test system: HCC 2998
HCT-116 = test system: HCT-116
HCT-15 = test system: HCT-15
HL-60 = test system: HL-60
HOP-62 = test system: HOP-62
HOP-92 = test system: HOP-92
HT-29 = test system: HT-29
Hs-578T = test system: Hs-578T
IGROV-1 = test system: IGROV-1
K562 = test system: K562
KM-20L2 = test system: KM-20L2
KM12 = test system: KM12
LOX IMVI = test system: LOX IMVI
LXFL 529 = test system: LXFL 529
M14 = test system: M14
M19-MEL = test system: M19-MEL
MCF7 = test system: MCF7
MDA-MB-231 = test system: MDA-MB-231
MDA-MB-435 = test system: MDA-MB-435
MDA-N = test system: MDA-N
MOLT-4 = test system: MOLT-4
Malme-3M = test system: Malme-3M
NCI-H226 = test system: NCI-H226
NCI-H23 = test system: NCI-H23
NCI-H460 = test system: NCI-H460
NCI-H522 = test system: NCI-H522
NCI/ADR-RES = test system: NCI/ADR-RES
OVCAR-3 = test system: OVCAR-3
OVCAR-4 = test system: OVCAR-4
OVCAR-5 = test system: OVCAR-5
OVCAR-8 = test system: OVCAR-8
PC-3 = test system: PC-3
RPMI-8226 = test system: RPMI-8226
RXF 393 = test system: RXF 393
SF-268 = test system: SF-268
SF-295 = test system: SF-295
SF-539 = test system: SF-539
SK-MEL-28 = test system: SK-MEL-28
SK-MEL-2 = test system: SK-MEL-2
SK-MEL-5 = test system: SK-MEL-5
SK-OV-3 = test system: SK-OV-3
SN12C = test system: SN12C
SNB-19 = test system: SNB-19
SNB-75 = test system: SNB-75
SNB-78 = test system: SNB-78
SR = test system: SR
SW-620 = test system: SW-620
T47D = test system: T47D
TK-10 = test system: TK-10
U-251 = test system: U-251
UACC-257 = test system: UACC-257
UACC-62 = test system: UACC-62
UO-31 = test system: UO-31
DMS-273 = test system: DMS-273

Measured: GI50

Cc1nc(-n2nc(-c3ccccc3)cc2-c2ccccc2)sc1C(/C=C\c1ccc([N+](=O)[O-])cc1)=N/NC(=S)NN
22.8 µM: HCT-15
inactive: 786-0 22.9 µM | A498 > 100 µM | A549 18.7 µM | ACHN 40.3 µM | BT-549 21.3 µM | CAKI-1 > 42.5 µM | CCRF-CEM > 50.8 µM | COLO 205 > 31.6 µM | DLD-1 19.2 µM | DMS-114 37.4 µM | DU-145 31 µM | EKVX > 56.6 µM | HCC 2998 13.8 µM | HCT-116 19.5 µM | HL-60 > 52.5 µM | HOP-62 22 µM | HOP-92 > 100 µM | HT-29 30.6 µM | Hs-578T 25 µM | IGROV-1 40.7 µM | K562 > 56.6 µM | KM-20L2 50.6 µM | KM12 43.7 µM | LOX IMVI 26.1 µM | LXFL 529 47.3 µM | M14 34.4 µM | M19-MEL > 100 µM | MCF7 15.4 µM | MDA-MB-231 > 10 µM | MDA-MB-435 > 100 µM | MDA-N 22 µM | MOLT-4 > 52.5 µM | Malme-3M > 58.6 µM | NCI-H226 > 46.8 µM | NCI-H23 22.1 µM | NCI-H460 33.5 µM | NCI-H522 18.2 µM | NCI/ADR-RES 26.9 µM | OVCAR-3 > 46.8 µM | OVCAR-4 26.2 µM | OVCAR-5 38.7 µM | OVCAR-8 16.7 µM | PC-3 28.2 µM | RPMI-8226 > 48.8 µM | RXF 393 37.4 µM | SF-268 26.4 µM | SF-295 13.8 µM | SF-539 24.2 µM | SK-MEL-28 45.2 µM | SK-MEL-2 44.1 µM | SK-MEL-5 27.7 µM | SK-OV-3 > 85.7 µM | SN12C 21.7 µM | SNB-19 > 49.3 µM | SNB-75 74.3 µM | SNB-78 70 µM | SW-620 > 74 µM | T47D 24.9 µM | TK-10 37.2 µM | U-251 > 74.3 µM | UACC-257 > 42.1 µM | UACC-62 39.1 µM | UO-31 > 43.9 µM
active: SR 0.0948 µM

CCN(CC)C(=S)/N=C(\SC(=S)N(CC)CC)c1ccccc1
active: CCRF-CEM 0.787 µM | COLO 205 0.522 µM | HT-29 0.392 µM | NCI-H522 0.119 µM | SK-MEL-5 0.569 µM | SR 0.391 µM
inactive: 786-0 > 65 µM | A498 > 95.3 µM | A549 20.8 µM | ACHN > 68.2 µM | BT-549 > 60.4 µM | CAKI-1 26.9 µM | DU-145 27.9 µM | EKVX 38.5 µM | HCC 2998 57.1 µM | HCT-116 14.6 µM | HL-60 1.27 µM | HOP-62 29.9 µM | HOP-92 > 100 µM | Hs-578T 35.4 µM | IGROV-1 21.4 µM | K562 1.29 µM | KM12 7.96 µM | LOX IMVI 15.1 µM | M14 37.5 µM | MCF7 3.6 µM | MDA-MB-231 5.65 µM | MDA-MB-435 > 59 µM | MDA-N 15.7 µM | MOLT-4 18.6 µM | Malme-3M 22.4 µM | NCI-H226 28.5 µM | NCI-H23 36.9 µM | NCI-H460 6.1 µM | NCI/ADR-RES 35.5 µM | OVCAR-3 28.2 µM | OVCAR-4 27.3 µM | OVCAR-5 > 80 µM | OVCAR-8 56 µM | PC-3 26.9 µM | RPMI-8226 2.48 µM | RXF 393 > 49.3 µM | SF-268 41.6 µM | SF-295 42.6 µM | SF-539 51.4 µM | SK-MEL-28 57 µM | SK-MEL-2 30.7 µM | SK-OV-3 47.3 µM | SN12C 48.6 µM | SNB-19 > 94.8 µM | SNB-75 24.1 µM | SW-620 > 66.8 µM | T47D 25.2 µM | TK-10 > 89.5 µM | U-251 58.5 µM | UACC-257 45.7 µM | UACC-62 39.6 µM | UO-31 27 µM
27.7 µM: HCT-15

CCN(CC)CC[n+]1ccc2c(C)c3[nH]c4ccccc4c3c(C)c2c1
16.3 µM: HCT-15
active: CAKI-1 1.11 µM | CCRF-CEM 0.219 µM | DMS-273 0.315 µM | EKVX 0.982 µM | HCC 2998 0.319 µM | HL-60 0.31 µM | HOP-62 0.953 µM | HT-29 0.518 µM | K562 0.182 µM | KM12 0.385 µM | LOX IMVI 0.399 µM | MCF7 0.678 µM | MOLT-4 0.182 µM | Malme-3M 0.583 µM | NCI-H23 0.292 µM | NCI-H460 0.451 µM | NCI-H522 0.211 µM | OVCAR-3 0.213 µM | RPMI-8226 0.644 µM | SF-268 0.222 µM | SF-295 0.701 µM | SF-539 0.413 µM | SK-MEL-28 0.352 µM | SK-MEL-2 0.465 µM | SK-MEL-5 0.337 µM | SN12C 0.222 µM | SNB-19 0.17 µM | SNB-75 0.251 µM | SW-620 0.445 µM | U-251 0.173 µM | UACC-257 0.565 µM
inactive: A498 5.19 µM | DLD-1 1.67 µM | OVCAR-5 1.14 µM | RXF 393 2.09 µM
